Among the data in ChEMBL document CHEMBL1201862, “PubChem BioAssay data set” (2004) are AC50, IC50 and EC50 values, retold here.

For assay [1], the system named is HEK293. The experiment in a line: EBV LMP1 TES2 canonical NF-kB signalling blockers – cell-based, HEK293, luciferase, cherry-pick, dose response (AID 588343). The class given is functional. The conditions noted are these: Homo sapiens.
Assay [2] concerns HEK293. The experiment in a line: HEK293T cell viability loss, resazurin readout – resazurin fluorescence, cytotoxicity control for NF-kB activator project, SAR follow-up (AID 493251). The class given is functional, cell-based. The conditions noted are these: Homo sapiens. For orientation: Resazurin is reduced to fluorescent resorufin, in cell work by metabolically active cells.

The target of assay [3] is Latent membrane protein 1 (Human herpesvirus 4 (strain B95-8), UniProt P03230). As to the kind of experiment: LMP1 TES1 pathway selectivity over dsRED control – imaging, HEK293T, dual-color eGFP/dsRED, cherry-picks, selectivity assay for LMP1 NF-kB inhibitor project, dose response (AID 588398). The class given is functional, cell-based.
Latent membrane protein 1, sequence (P03230 whole entry): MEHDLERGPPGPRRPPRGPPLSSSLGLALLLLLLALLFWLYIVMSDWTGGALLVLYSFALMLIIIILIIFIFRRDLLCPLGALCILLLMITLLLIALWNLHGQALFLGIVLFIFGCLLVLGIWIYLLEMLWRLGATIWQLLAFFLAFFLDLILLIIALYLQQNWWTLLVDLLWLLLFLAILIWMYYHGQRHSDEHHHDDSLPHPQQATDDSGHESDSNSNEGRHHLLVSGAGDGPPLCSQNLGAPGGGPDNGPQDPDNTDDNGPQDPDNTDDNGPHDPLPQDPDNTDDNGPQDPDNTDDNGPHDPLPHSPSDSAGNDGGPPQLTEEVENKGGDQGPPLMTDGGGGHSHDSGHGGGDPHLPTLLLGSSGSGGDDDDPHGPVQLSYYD
The subject of the next assay is Jurkat. As to the kind of experiment: SAR Analysis of small molecule inhibitors of T-cell specific antigen receptor-induced NF-kB activation in a Jurkat cell line using a luminescence assay - Set 2. [Related pubchem assays (depositor defined):AID435003, AID435012, AID465]. The conditions noted are these: Homo sapiens. The class given is functional, cell-based.
Assay [4] deals with HEK293. The experiment in a line: SAR Analysis of small molecule inhibitors of T-cell specific antigen receptor-induced NF-kB activation in a HEK-293T cell line using a luminescence assay - Set 2. [Related pubchem assays (depositor defined):AID435003, AID435012, AID489026]. It counts as functional, cell-based. The conditions noted are these: Homo sapiens.
A short description of assay [5]: reduction of Shn3 3'UTR-driven luciferase in osteoblasts – cell-based, Clone20 osteoblasts, firefly luciferase, cherry-picked, dose response (AID 624132).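 Also: firefly luciferase luminescence from reporter carrying the Shn3 3'UTR in osteoblasts.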 The class given is functional.
The nature of assay [6]: loss of viability in HepG2 cells – cell-based, CellTiter-Glo, cherry-picked, cytotoxicity control for Shn3 inhibitor project, dose response (AID 624134). It counts as functional.
A short description of assay [7]: non-specific 3'UTR reporter inhibition in Clone20-Shn3RL – cell-based, Renilla luciferase, cherry-picked, counter-screen for Shn3 inhibitor project, dose response (AID 624133). The class given is functional. A general note: Counterscreens check selectivity or assay interference.
For the next assay, the target named is Beta-galactosidase (Escherichia coli, UniProt Q8VNN2). The experiment in a line: PubChem AID 485352. It counts as functional.
Beta-galactosidase, sequence (Q8VNN2 whole entry): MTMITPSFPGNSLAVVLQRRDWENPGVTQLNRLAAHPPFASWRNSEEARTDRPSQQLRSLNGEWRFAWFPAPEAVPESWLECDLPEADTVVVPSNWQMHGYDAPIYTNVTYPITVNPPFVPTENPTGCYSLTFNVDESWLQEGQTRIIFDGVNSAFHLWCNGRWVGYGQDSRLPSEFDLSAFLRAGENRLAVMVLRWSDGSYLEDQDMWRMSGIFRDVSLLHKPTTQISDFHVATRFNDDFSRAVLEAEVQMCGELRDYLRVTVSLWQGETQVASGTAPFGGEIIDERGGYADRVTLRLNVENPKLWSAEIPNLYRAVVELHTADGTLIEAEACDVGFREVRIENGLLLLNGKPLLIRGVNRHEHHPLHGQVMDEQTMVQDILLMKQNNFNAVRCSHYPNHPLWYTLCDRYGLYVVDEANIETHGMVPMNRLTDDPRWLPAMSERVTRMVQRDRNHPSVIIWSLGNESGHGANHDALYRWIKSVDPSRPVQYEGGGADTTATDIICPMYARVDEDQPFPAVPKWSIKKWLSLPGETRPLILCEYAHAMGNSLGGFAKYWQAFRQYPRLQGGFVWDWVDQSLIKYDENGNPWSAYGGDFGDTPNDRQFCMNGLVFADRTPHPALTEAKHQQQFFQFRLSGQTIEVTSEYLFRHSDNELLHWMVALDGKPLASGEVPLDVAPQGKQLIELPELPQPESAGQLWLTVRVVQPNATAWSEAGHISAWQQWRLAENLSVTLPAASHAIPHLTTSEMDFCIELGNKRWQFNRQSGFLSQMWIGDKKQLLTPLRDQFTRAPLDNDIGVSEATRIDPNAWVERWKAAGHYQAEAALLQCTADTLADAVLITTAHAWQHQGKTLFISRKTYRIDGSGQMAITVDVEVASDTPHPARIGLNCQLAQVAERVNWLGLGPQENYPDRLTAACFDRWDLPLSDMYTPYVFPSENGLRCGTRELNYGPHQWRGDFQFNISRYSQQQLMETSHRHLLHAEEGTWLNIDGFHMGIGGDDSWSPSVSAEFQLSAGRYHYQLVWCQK
Assay [8] addresses T1, Type-1 angiotensin II receptor (Homo sapiens, UniProt P30556).
T1 sequence (P30556 whole entry): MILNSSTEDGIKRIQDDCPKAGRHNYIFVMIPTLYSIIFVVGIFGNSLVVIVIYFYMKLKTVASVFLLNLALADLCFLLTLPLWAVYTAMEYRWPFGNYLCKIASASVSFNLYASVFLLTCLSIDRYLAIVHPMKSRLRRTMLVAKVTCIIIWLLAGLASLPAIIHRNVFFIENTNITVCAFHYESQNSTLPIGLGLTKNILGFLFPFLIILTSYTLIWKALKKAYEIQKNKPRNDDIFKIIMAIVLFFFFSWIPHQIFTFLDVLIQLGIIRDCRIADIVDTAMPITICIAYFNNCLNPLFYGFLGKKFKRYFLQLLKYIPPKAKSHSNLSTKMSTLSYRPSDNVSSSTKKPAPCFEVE
As to the kind of experiment: antagonism of angiotensin II type 1 receptor – cell-based, uHTS hits, selectivity assay for APJ receptor antagonist project, dose response (AID 463214).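 Also: antagonist potency against angiotensin II stimulated AT1 response.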 It counts as functional.

In assay [9] the target is Lysine-specific demethylase 4C (Homo sapiens, UniProt Q9H3R0). The experiment in a line: inhibition of JMJD2C H3K9me3 demethylation – biochemical, DELFIA europium, cherry-picked samples, dose response (AID 488835). It counts as functional.
Lysine-specific demethylase 4C, sequence (Q9H3R0 whole entry): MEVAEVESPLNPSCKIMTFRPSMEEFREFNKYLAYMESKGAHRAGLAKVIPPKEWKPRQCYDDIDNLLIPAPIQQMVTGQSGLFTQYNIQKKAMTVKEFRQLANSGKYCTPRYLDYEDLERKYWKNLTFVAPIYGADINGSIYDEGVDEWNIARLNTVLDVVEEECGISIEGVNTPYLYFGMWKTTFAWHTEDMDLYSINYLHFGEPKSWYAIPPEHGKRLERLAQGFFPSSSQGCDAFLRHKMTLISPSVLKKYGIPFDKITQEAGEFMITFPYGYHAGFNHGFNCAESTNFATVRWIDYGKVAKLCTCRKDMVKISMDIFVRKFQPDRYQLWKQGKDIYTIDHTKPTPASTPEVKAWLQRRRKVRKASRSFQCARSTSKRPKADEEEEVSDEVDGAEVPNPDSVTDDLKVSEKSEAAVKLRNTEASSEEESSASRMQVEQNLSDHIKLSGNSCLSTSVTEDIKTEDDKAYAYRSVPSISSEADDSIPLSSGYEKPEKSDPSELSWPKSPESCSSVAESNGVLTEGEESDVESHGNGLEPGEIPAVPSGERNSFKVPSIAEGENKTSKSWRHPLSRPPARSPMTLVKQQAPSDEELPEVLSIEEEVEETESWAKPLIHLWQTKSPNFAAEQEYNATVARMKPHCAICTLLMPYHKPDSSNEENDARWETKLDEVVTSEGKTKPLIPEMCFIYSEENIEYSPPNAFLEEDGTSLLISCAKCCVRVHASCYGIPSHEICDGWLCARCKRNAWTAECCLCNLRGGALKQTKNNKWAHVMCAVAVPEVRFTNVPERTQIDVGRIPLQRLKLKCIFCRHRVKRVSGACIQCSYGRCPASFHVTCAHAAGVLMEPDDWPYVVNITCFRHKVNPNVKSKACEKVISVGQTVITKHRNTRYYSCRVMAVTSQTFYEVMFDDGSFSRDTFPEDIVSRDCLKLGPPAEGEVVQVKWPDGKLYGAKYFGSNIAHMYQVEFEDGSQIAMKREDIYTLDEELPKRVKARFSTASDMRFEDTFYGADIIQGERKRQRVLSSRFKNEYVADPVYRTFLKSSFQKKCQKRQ
In assay [10] the target is T2, Apoptotic protease-activating factor 1 (Homo sapiens, UniProt O14727).
T2 sequence (O14727 whole entry): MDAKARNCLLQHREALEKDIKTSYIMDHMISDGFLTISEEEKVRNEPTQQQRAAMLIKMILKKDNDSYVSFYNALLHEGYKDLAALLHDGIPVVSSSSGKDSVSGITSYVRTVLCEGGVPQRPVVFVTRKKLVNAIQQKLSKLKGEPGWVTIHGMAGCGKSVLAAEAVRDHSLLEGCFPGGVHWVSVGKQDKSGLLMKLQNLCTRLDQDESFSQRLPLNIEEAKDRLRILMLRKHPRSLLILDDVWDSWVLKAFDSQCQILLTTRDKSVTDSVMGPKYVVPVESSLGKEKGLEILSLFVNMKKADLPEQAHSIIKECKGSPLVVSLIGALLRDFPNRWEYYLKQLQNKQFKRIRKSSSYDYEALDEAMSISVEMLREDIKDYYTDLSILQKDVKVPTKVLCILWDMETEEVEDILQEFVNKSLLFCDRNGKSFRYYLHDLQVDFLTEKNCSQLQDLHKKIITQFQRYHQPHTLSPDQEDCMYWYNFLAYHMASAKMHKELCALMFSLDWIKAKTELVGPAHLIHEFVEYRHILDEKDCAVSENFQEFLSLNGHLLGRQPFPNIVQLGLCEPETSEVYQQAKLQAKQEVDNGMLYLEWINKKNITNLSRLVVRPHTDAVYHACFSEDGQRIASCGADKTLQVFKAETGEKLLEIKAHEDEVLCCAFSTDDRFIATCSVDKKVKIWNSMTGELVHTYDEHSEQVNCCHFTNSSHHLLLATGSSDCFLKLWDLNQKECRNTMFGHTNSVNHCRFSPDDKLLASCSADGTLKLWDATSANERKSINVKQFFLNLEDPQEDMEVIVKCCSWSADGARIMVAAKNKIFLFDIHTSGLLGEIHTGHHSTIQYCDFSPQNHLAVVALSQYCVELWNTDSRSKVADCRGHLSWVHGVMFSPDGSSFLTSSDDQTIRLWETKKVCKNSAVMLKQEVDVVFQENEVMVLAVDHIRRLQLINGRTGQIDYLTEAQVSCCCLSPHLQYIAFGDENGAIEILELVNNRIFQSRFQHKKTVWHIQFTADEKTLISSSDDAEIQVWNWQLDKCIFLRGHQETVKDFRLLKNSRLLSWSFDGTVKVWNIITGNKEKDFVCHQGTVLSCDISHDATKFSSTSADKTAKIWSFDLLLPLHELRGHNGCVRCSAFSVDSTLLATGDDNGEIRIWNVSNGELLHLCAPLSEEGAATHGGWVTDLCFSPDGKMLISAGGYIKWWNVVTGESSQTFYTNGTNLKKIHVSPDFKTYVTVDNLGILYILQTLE
The class given is functional.

Assay [11] addresses T3, Histone-lysine N-methyltransferase NSD2 (Homo sapiens, UniProt O96028).
T3 sequence (O96028 whole entry): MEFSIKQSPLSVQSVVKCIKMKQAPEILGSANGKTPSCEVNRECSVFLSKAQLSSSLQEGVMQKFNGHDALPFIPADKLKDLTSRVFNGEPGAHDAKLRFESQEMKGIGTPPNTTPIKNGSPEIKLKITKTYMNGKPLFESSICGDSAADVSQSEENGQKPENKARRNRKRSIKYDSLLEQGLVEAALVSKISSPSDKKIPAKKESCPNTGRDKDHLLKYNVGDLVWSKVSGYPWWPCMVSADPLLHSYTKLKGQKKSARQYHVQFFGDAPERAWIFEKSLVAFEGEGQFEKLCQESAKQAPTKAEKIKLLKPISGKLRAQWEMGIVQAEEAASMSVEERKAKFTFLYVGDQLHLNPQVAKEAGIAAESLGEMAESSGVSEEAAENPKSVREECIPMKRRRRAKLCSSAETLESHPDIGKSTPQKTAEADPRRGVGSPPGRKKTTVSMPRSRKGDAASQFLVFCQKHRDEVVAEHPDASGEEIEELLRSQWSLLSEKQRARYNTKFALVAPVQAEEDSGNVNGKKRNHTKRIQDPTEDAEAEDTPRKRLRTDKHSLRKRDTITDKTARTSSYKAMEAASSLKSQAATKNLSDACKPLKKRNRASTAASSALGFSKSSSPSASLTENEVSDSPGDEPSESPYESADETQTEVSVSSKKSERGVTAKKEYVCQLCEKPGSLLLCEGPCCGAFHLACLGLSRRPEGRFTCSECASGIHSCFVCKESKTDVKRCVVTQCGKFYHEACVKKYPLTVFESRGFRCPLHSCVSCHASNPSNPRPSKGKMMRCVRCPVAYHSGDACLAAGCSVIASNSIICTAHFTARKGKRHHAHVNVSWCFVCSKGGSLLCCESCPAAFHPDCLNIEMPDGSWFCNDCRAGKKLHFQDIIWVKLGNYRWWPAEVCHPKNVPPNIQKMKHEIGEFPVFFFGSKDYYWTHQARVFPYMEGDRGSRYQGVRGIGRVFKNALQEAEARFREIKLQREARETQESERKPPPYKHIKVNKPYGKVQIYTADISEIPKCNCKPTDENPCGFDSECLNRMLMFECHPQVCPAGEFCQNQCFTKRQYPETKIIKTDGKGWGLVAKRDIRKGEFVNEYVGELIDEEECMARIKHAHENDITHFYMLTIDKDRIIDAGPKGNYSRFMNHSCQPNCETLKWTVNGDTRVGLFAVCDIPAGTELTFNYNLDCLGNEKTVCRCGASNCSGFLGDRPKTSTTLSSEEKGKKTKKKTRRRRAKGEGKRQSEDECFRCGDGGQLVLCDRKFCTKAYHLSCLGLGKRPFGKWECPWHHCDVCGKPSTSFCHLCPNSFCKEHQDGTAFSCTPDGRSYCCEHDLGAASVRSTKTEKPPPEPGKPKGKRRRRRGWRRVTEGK
The class given is biochemical.

Assay [12] is described as follows: NIH-3T3 fibroblast cytotoxicity, dose response, cytotoxicity control, cell-based, fluorescence, Alamar Blue, secondary assay (AID 2327).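 Also: NIH-3T3 mouse fibroblasts cultured with fluconazole at 8 µg/mL.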 It counts as functional.
Assay [13] in a line: fluconazole-exposed Candida albicans growth modulators – fluorescence, retest, confirmation (AID 2467). The class given is functional, cell-based.
The target in assay [14] is Eukaryotic translation initiation factor 4E (Mus musculus, UniProt P63073). As to the kind of experiment: blockers of eIF4G binding by eIF4E – biochemical, TR-FRET, dose response (AID 855).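 Also: potency for disrupting eIF4E binding to eIF4GI seen as loss of FRET.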 The class given is functional.
Eukaryotic translation initiation factor 4E, sequence (P63073 whole entry): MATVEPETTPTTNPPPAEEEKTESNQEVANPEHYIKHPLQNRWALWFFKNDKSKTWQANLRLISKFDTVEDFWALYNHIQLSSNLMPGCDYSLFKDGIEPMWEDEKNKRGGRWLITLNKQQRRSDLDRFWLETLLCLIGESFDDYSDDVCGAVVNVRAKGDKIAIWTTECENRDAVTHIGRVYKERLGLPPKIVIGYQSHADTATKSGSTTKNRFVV

Activity calls are given as the source filed them.

A word on the AC50: it is the concentration at which the activity in the assay is half-maximal. Usually IC50 stands for the concentration that inhibits the measured activity by half. As for `CCCCC(=O)NC(c1ccc(OC)cc1)c1ccc2cccnc2c1O` (stereo not drawn), the AC50 in the assay with HEK293 [1] was 15.8 µM (active); in assay [3], 11.6 µM (active); in [5], 2.28 µM (active); in assay [6], 5.14 µM (active); in assay [7] it was 8.8 µM (active). In addition, the IC50 in the assay on HEK293 [2] was 21.7 µM (inactive); in the assay with Jurkat, 3.22 µM (active); in the assay on HEK293 [4] it was 5.25 µM (active).
The EC50 is the concentration at which the effect is half-maximal. With `C=CCN(CC=C)Cc1c(O)ccc2c1oc(=O)c1ccccc12`, the EC50 on Beta-galactosidase is > 40 µM (inactive). In addition, the IC50 was > 40 µM (not active) in assay [8] and 60.3 µM (active) in [10]. The half-maximal activity concentration (AC50) is 0.48 µM (active) in assay [9] and 4.02 µM (active) in assay [11].
With `Cn1cccc1-c1cc(C(=O)N2CCc3c([nH]c4ccccc34)C2c2ccccn2)[nH]n1` (stereo not drawn), the 50% effective concentration (EC50) in [12] is 21.3 µM (active); in assay [13], 2.76 µM (active). In addition, the IC50 in assay [14] was 50 µM (inactive). Further, the values for the concentration at half-maximal activity (AC50) (with HEK293 [1]; in assay [3]) were 25.8 µM (active) and 21.6 µM (active), respectively.
